Experimental data reported in patent US20260200926A1, “TREM2 MODULATORS” (Muna Therapeutics ApS, priority 2022, published 2026).
Where two headings read alike, the source gives them in different places.

Molecular target: T1, Human TREM2 (Homo sapiens, UniProt Q9NZC2)
T1 construct: expressed in transfected cells
Test: Human TREM2 activity: cellular phosphorylation of Syk (AlphaLISA SureFire Ultra p-SYK) in HEK293/DAP12+TREM2 stable cell line
Type: cell-based
Conditions: for Emax: maximal response relative to reference agonist example 1B (remaining examples); for EC50: phospho-Syk AlphaLISA signal, HEK293/DAP12+TREM2 cells, concentration giving 50% of maximal response, read-out: EC50
From the text: Human TREM2, in vitro Measurement of Triggering Receptor Expressed on Myeloid Cells 2 activity using cellular phosphorylation of Spleen Tyrosine Kinase (“Syk”) Assay
HEK-293 cells were co-transfected with separate plasmids encoding TREM2 and DAP12 to generate a stable cell line. After antibiotic selection, functional clone pool analysis and two successive limiting dilutions, the final clone “HEK293/DAP12+TREM2” underwent a qPCR analysis and a pharmacological validation.
TREM2 signaling through DAP12 was monitored in the HEK293/DAP12+TREM2 stable cell line by measuring the phosphorylation levels of the Syk kinase using the commercially available AlphaLISA SureFire Ultra p-SYK (Tyr525/526) Assay Kit (PerkinElmer #ALSU-PSYK), based on the Perkin Elmer AlphaScreen/AlphaLISA technology.
Compounds are transferred to the test plate and tested in full dose response, 8 concentrations in quadruplicate data points. Compound serial dilutions were performed at Cybi-Felix instrument in 100% DMSO and the dose response curves were assembled in automated fashion in 384MPT at Hamilton STARlet instrument. All the stock solutions were prepared at 20 mM in 100% DMSO. For compounds testing, the starting concentration was 100 μM, dilution steps 1:6. […] Finally, a 384MPT reformatted for all compounds at 8 concentrations, quadruplicates, was used as “mother to child” process with a CyBi®-Well dispenser in which 1 μL of each compound was moved into a destination plate pre-filled with 65.6 μL of EMEM cell culture medium (BIOWHITTAKER_cat.BE12-125F), thus obtaining 3× concentrated compounds working solution. In columns 1-2 and 23-24 the control wells were added. In particular, dose response curves of a reference control agonist were included in column 1 and 24 as reference control agonist (Reference control agonists used include Human TREM2 polyclonal Antibody AF1828: R&D Systems; Human TREM2 monoclonal Antibody MAB1828: R&D Systems). The dose response curves were tested starting at 30 μM, dilution step 1:6. Both “source” compound plate and “destination” compound plate were barcoded and a relationship between the two plates was thus generated.
HEK293/DAP12+TREM2 cells were cultured in EMEM medium supplemented with IX Penicillin/Streptomycin (BIOWHITTAKER_cat.DE17-602E), ULTRAGLUTAMINE I 200 mM, 10% Fetal Bovine Serum plus antibiotics referred to as “HEK293 Culture Medium”. The day before the experiment, cells were detached by gentle wash with DPBS, followed by 5 min incubation at 37° C. with Trypsin solution. Cells were then diluted in HEK293 Culture Medium without antibiotics, counted and seeded into 384-well poly-D-Lysine coated microplates black/clear bottom (GREINER 781946) at a density of 10,000 cells/well in 25 μL/well by the use of a MATRIX WellMate dispenser. Plates were placed into a humidified cell culture incubator at 37° C. with 5% CO2 until the experimental day. 20-24 hours after seeding mature medium was removed and replaced with 10 μL/well of EMEM cell medium supplemented with 0.1% Pluronic F-68 non-ionic surfactant (Thermofisher, 24040032), referred to as “Assay Buffer”, using the CyBi®-Well instrument. Then 5 μL/well of Assay Buffer containing 3× concentrated test compounds or the reference control agonist (in 0.5% final DMSO concentration) were added to the cells with the CyBi®-Well instrument. Cell plates were incubated for 30 min into a humidified cell culture incubator at 37° C. with 5% CO2·, then the medium was removed by manually discard. 20 μL/well of lysis buffer were dispensed using the CyBi®-Well instrument and plates were incubated for 10 min at room temperature on a plate shaker (350 rpm). Then, 10 μL/well of lysate were transferred to the Alpha plates. The CyBi®-Well instrument was used to dispense 5 μL/well of AlphaLISA Acceptor Bead Solution in IX Immunoassay buffer (Perkin Elmer AL000F). Then the plates were sealed with Heat sealing foil, shaked for 2 minutes (350 rpm) and incubated for 1 hour at room temperature.

T1 sequence (Q9NZC2 19-230): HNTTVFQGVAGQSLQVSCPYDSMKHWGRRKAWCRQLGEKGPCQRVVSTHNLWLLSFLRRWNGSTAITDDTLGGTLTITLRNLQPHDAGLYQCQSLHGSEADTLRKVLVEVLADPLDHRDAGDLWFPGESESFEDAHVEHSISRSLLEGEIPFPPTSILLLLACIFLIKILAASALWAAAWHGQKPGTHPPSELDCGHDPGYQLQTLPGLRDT
T1 sequence (O43914 22-113 partner): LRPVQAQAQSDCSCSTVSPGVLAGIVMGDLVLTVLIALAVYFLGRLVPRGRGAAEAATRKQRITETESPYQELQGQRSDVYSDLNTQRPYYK

Compound	Emax (HEK293, read-out: Emax)	EC50	Emax
Cc1nc2c(-c3ccc(Cl)cc3F)nc(N3CCOC(c4cn(C)nn4)C3)nc2c(=O)n1C (centres unmarked) [Example 73, 8-(4-chloro-2-fluorophenyl)-2,3-dimethyl-6-(2-(1-methyl-1H-1,2,3-triazol-4-yl)morpholino)pyrimido[5,4-d]pyrimidin-4 (3H)-one]	75 to 110%	100 to 1000 nM	–
Cc1nc2c(-c3ccc(C(F)(F)F)cc3F)nc(N3C[C@H](c4cnn(C)c4)OC4(CC4)C3)cc2c(=O)n1C (single isomer, unassigned) [Example 145B]	< 75%	10 to 100 nM	–
Cc1nc2c(-c3ccc(Cl)cc3F)cc(N3C[C@H](c4cnn(C)c4)OC(C)(C)C3)cc2c(=O)n1C (single isomer, unassigned) [Example 117B]	< 75%	100 to 1000 nM	–
COCCn1cc(C2CN(c3nc(-c4ccc(Cl)cc4F)c4nc(C)n(C)c(=O)c4n3)CCO2)cn1 (centres unmarked) [Example 69, 8-(4-chloro-2-fluorophenyl)-6-(2-(1-(2-methoxyethyl)-1H-pyrazol-4-yl)morpholino)-2,3-dimethylpyrimido[5,4-d]pyrimidin-4 (3H)-one]	< 75%	10 to 100 nM	–
Cc1nc2c(-c3ccc(C(F)(F)F)nc3)nc(N3C[C@@H](C)O[C@@H](c4cnn(C5CC5)c4)C3)cc2c(=O)n1C (single isomer, unassigned) [Example 184B]	< 75%	10 to 100 nM	–
Cc1cc([C@@H]2CN(c3nc(-c4ccc(F)cc4F)c4nc(C)n(C)c(=O)c4n3)CCO2)ccn1 (single isomer, unassigned) [Example 122A]	75 to 110%	1 to 10 nM	–
Cc1nc2c(-c3ccc(C(F)(F)F)cc3F)nc(N3C[C@@H](c4cnn(C5CC5)c4)O[C@@H](C)C3)nc2c(=O)n1C (single isomer, unassigned) [Example 195A]	< 75%	1 to 10 nM	–
Cc1cc([C@@H]2CN(c3cc4c(=O)n(C)c(C)nc4c(-c4ccc(F)cc4F)n3)CC(F)(F)O2)ccn1 (single isomer, unassigned) [Example 171A]	> 110%	1 to 10 nM	–
Cc1cc([C@H]2CN(c3cc4c(=O)n(C)c(C)nc4c(-c4ccc(F)cc4F)n3)CCO2)ccn1 (single isomer, unassigned) [Example 136B]	< 75%	100 to 1000 nM	–
Cc1nc2c(-c3ccc(Cl)cc3F)nc([C@H]3CCO[C@@H](c4cnn(C5CC5)c4)C3)nc2c(=O)n1C (racemic) [Example 14, 8-(4-chloro-2-fluorophenyl)-6-((2R,4S)-2-(1-cyclopropyl-1H-pyrazol-4-yl)tetrahydro-2H-pyran-4-yl)-2,3-dimethylpyrimido[5,4-d]pyrimidin-4 (3H)-one]	75 to 110%	100 to 1000 nM	–
6-((2R,4S)-2-(1-cyclopropyl-1H-pyrazol-4-yl)tetrahydro-2H-pyran-4-yl)-8-(2-fluoro-4-(trifluoromethyl)phenyl)-2,3-dimethylquinazolin-4 (3H)-one [Example 120B]	–	10 to 100 nM	++ (75-110%)
Cc1nc2c(-c3cc(F)c(F)cc3F)nc(N3C[C@@H](c4cnn(C)c4)OC4(CC4)C3)cc2c(=O)n1C (single isomer, unassigned) [Example 146A]	75 to 110%	10 to 100 nM	–
Cc1cc([C@@H]2CN(c3cc4c(=O)n(C)c(C)nc4c(-c4ccc(Cl)cc4F)n3)CCO2)ccn1 (single isomer, unassigned) [Example 135A]	75 to 110%	1 to 10 nM	–
Cc1nc2c(C3CCNCC3)nc(N3CCOC(c4cnn(C)c4)C3)nc2c(=O)n1C (centres unmarked) [Example 87, 2,3-dimethyl-6-(2-(1-methyl-1H-pyrazol-4-yl)morpholino)-8-(piperidin-4-yl)pyrimido[5,4-d]pyrimidin-4 (3H)-one]	75 to 110%	> 1000 nM	–
Cc1nc2c(-c3ccc(Cl)cc3F)nc(N3CCCC(N4CCOCC4)C3)nc2c(=O)n1C (centres unmarked) [Example 78, 8-(4-chloro-2-fluorophenyl)-2,3-dimethyl-6-(3-morpholinopiperidin-1-yl)pyrimido[5,4-d]pyrimidin-4 (3H)-one]	75 to 110%	100 to 1000 nM	–
Cc1nc2c(-c3ccc(Cl)cc3F)nc(N3C[C@@H](c4cnn(C)c4)OC(C)(C)C3)cc2c(=O)n1C (single isomer, unassigned) [Example 112A]	75 to 110%	10 to 100 nM	–
Cc1cc([C@H]2CN(c3cc4c(=O)n(C)c(C)nc4c(-c4ccc(C(F)(F)F)cc4F)n3)CCO2)ccn1 (single isomer, unassigned) [Example 137B]	75 to 110%	100 to 1000 nM	–
Cc1cc([C@H]2CN(c3nc(-c4ccc(C(F)(F)F)cc4F)c4nc(C)n(C)c(=O)c4n3)CC(C)(C)O2)ccn1 (single isomer, unassigned) [Example 124B]	75 to 110%	1 to 10 nM	–
Cc1cc([C@@H]2C[C@H](c3cc4c(=O)n(C)c(C)nc4c(-c4ccc(C(F)(F)F)cc4F)n3)CCO2)ccn1 (single isomer, unassigned) [Example 168A]	< 75%	100 to 1000 nM	–
Cc1nc2c(-c3ccc(Cl)cc3F)nc(N3CC(c4cnn(C)c4)OC4(CCC4)C3)nc2c(=O)n1C (centres unmarked) [Example 90, 8-(4-chloro-2-fluorophenyl)-2,3-dimethyl-6-(6-(1-methyl-1H-pyrazol-4-yl)-5-oxa-8-azaspiro(3,5)nonan-8-yl)pyrimido(5,4-d)pyrimidin-4 (3H)-one]	75 to 110%	1 to 10 nM	–
Cc1nc2c(-c3ccc(F)cc3F)nc(N3C[C@H](c4cnn(C)c4)OC(F)(F)C3)cc2c(=O)n1C (single isomer, unassigned) [Example 166B]	< 75%	10 to 100 nM	–
Cc1nc2c(-c3ccc(Cl)cc3F)nc(N3CC(c4cnn(C)c4)OC(C)(C)C3)nc2c(=O)n1C (centres unmarked) [Example 62, 8-(4-chloro-2-fluorophenyl)-6-(2,2-dimethyl-6-(1-methyl-1H-pyrazol-4-yl)morpholino)-2,3-dimethylpyrimido[5,4-d]pyrimidin-4 (3H)-one]	< 75%	1 to 10 nM	–
Cc1cc([C@H]2CN(c3nc(-c4cc(F)c(F)cc4F)c4nc(C)n(C)c(=O)c4n3)CCO2)ccn1 (single isomer, unassigned) [Example 123B]	75 to 110%	10 to 100 nM	–
Cc1nc2c(-c3ccc(Cl)cc3F)nc(N3CCOC(c4cn[nH]c4)C3)nc2c(=O)n1C (centres unmarked) [Example 39, 6-(2-(1H-pyrazol-4-yl)morpholino)-8-(4-chloro-2-fluorophenyl)-2,3-dimethylpyrimido[5,4-d]pyrimidin-4 (3H)-one]	< 75%	10 to 100 nM	–
Cc1cc([C@@H]2CN(c3nc(-c4ccc(C(F)(F)F)cc4F)c4nc(C)n(C)c(=O)c4n3)CC(C)(C)O2)ccn1 (single isomer, unassigned) [Example 124A]	75 to 110%	10 to 100 nM	–
Cc1cc([C@@H]2CN(c3cc4c(=O)n(C)c(C)nc4c(-c4cc(F)c(F)cc4F)n3)CC(C)(C)O2)ccn1 (single isomer, unassigned) [Example 160A]	75 to 110%	1 to 10 nM	–
Cc1nc2c(-c3ccc(Cl)cc3F)nc(N3C[C@H](c4cnn(C)c4)OC4(CC4)C3)cc2c(=O)n1C (single isomer, unassigned) [Example 144B]	< 75%	10 to 100 nM	–
Cc1nc2c(-c3ccc(Cl)cc3F)nc(N3CCc4cncnc4CC3)nc2c(=O)n1C [Example 83, 8-(4-chloro-2-fluorophenyl)-2,3-dimethyl-6-(5,6,8,9-tetrahydro-7H-pyrimido[4,5-d]azepin-7-yl)pyrimido[5,4-d]pyrimidin-4(3H)-one]	< 75%	> 1000 nM	–
